Data as given in PMC5218480 (PLoS ONE, 2017).

Tested on: MV-4-11 cells
Assay: Gene expression microarray analysis (Affymetrix PrimeView) and GSEA
Type: cell-based, human
Set-up: RFU PODN (11730768_x_at) / Fold change /veh PODN (11730768_x_at) / RFU LINC00158 (11744669_a_at) / Fold change /veh LINC00158 (11744669_a_at) / RFU DUSP10 (11751237_a_at) / Fold change /veh DUSP10 (11751237_a_at) / RFU ID3 (11757404_x_at) / Fold change /veh ID3 (11757404_x_at) / RFU PLEKHG5 (11737974_s_at) / Fold change /veh PLEKHG5 (11737974_s_at) / RFU LRRC4B (11730491_at) / Fold change /veh LRRC4B (11730491_at) / RFU GIMAP4 (11747438_a_at) / Fold change /veh GIMAP4 (11747438_a_at) / RFU KRT8 (11758183_x_at) / Fold change /veh KRT8 (11758183_x_at) / RFU CNN1 (11734310_a_at) / Fold change /veh CNN1 (11734310_a_at) / RFU VPS37D (11726825_at) / Fold change /veh VPS37D (11726825_at) / RFU C10orf10 (11716522_x_at) / Fold change /veh C10orf10 (11716522_x_at) / RFU KIR2DL2 /// KIR2DL4 /// KIR2DL5A /// KIR2DL5B /// KIR2DS1 /// KIR2DS2 /// KIR2DS3 /// KIR2DS4 /// KIR3DL3 /// KIR3DL3 /// KIR3DS1 (11738374_at) / Fold change /veh KIR2DL2 /// KIR2DL4 /// KIR2DL5A /// KIR2DL5B /// KIR2DS1 /// KIR2DS2 /// KIR2DS3 /// KIR2DS4 /// KIR3DL3 /// KIR3DL3 /// KIR3DS1 (11738374_at) / RFU C1QL1 (11718748_at) / Fold change /veh C1QL1 (11718748_at) / RFU TMPRSS4 (11747572_a_at) / Fold change /veh TMPRSS4 (11747572_a_at) / RFU HAMP (11756126_x_at) / Fold change /veh HAMP (11756126_x_at) / RFU RNFT2 (11725882_a_at) / Fold change /veh RNFT2 (11725882_a_at) / RFU NR4A2 (11747474_a_at) / Fold change /veh NR4A2 (11747474_a_at) / RFU ABCC12 (11746883_a_at) / Fold change /veh ABCC12 (11746883_a_at) / RFU TMEM136 (11760407_x_at) / Fold change /veh TMEM136 (11760407_x_at) / RFU CLDN22 /// WWC2 (11732394_at) / Fold change /veh CLDN22 /// WWC2 (11732394_at) / RFU HLA-DPB1 (11760878_x_at) / Fold change /veh HLA-DPB1 (11760878_x_at) / RFU SPINT1 (11716480_a_at) / Fold change /veh SPINT1 (11716480_a_at) / RFU GAP43 (11754022_s_at) / Fold change /veh GAP43 (11754022_s_at) / RFU A4GNT (11735810_at) / Fold change /veh A4GNT (11735810_at) / RFU PRB3 (11715151_x_at) / Fold change /veh PRB3 (11715151_x_at) / RFU TUBB4B (11761932_at) / Fold change /veh TUBB4B (11761932_at) / RFU CAPN14 (11732068_a_at) / Fold change /veh CAPN14 (11732068_a_at) / RFU TMCC2 (11721928_a_at) / Fold change /veh TMCC2 (11721928_a_at) / RFU IRGQ (11745062_a_at) / Fold change /veh IRGQ (11745062_a_at) / RFU FAM174B (11720279_a_at) / Fold change /veh FAM174B (11720279_a_at) / RFU TMPRSS4 (11748680_a_at) / Fold change /veh TMPRSS4 (11748680_a_at) / RFU FAM212B (11763350_a_at) / Fold change /veh FAM212B (11763350_a_at) / RFU PLEKHG5 (11743358_a_at) / Fold change /veh PLEKHG5 (11743358_a_at) / RFU ZSCAN30 (11745921_a_at) / Fold change /veh ZSCAN30 (11745921_a_at) / RFU CMKLR1 (11741424_a_at) / Fold change /veh CMKLR1 (11741424_a_at) / RFU LOC101060620 /// MAPK8IP1 (11723275_at) / Fold change /veh LOC101060620 /// MAPK8IP1 (11723275_at) / RFU SPTSSB (11747773_x_at) / Fold change /veh SPTSSB (11747773_x_at) / RFU PRSS12 (11739890_at) / Fold change /veh PRSS12 (11739890_at) / RFU BIN1 (11741810_x_at) / Fold change /veh BIN1 (11741810_x_at) / RFU WNT11 (11732464_a_at) / Fold change /veh WNT11 (11732464_a_at) / RFU C10orf10 (11716521_a_at) / Fold change /veh C10orf10 (11716521_a_at) / RFU C5orf56 (11738089_at) / Fold change /veh C5orf56 (11738089_at) / RFU CYB561 (11721691_x_at) / Fold change /veh CYB561 (11721691_x_at) / RFU ANKRD19P (11752326_a_at) / Fold change /veh ANKRD19P (11752326_a_at) / RFU OR2T12 /// OR2T33 /// OR2T8 (11738714_s_at) / Fold change /veh OR2T12 /// OR2T33 /// OR2T8 (11738714_s_at) / RFU VCAN (11748164_a_at) / Fold change /veh VCAN (11748164_a_at) / RFU JSRP1 (11732532_at) / Fold change /veh JSRP1 (11732532_at) / RFU KRTAP10-11 (11738290_x_at) / Fold change /veh KRTAP10-11 (11738290_x_at) / RFU MYO3A (11730013_a_at) / Fold change /veh MYO3A (11730013_a_at) / RFU EBF3 (11725865_a_at) / Fold change /veh EBF3 (11725865_a_at) / RFU CAMK2N1 (11719241_x_at) / Fold change /veh CAMK2N1 (11719241_x_at) / RFU C5orf56 (11738088_a_at) / Fold change /veh C5orf56 (11738088_a_at) / RFU OLFML3 (11715873_a_at) / Fold change /veh OLFML3 (11715873_a_at) / RFU LOC100653217 /// NTM (11731650_a_at) / Fold change /veh LOC100653217 /// NTM (11731650_a_at) / RFU MAPK11 (11762145_a_at) / Fold change /veh MAPK11 (11762145_a_at) / RFU FIZ1 (11724087_x_at) / Fold change /veh FIZ1 (11724087_x_at) / RFU OASL (11726364_x_at) / Fold change /veh OASL (11726364_x_at) / RFU SOX15 (11748057_x_at) / Fold change /veh SOX15 (11748057_x_at) / RFU CD79A (11719716_a_at) / Fold change /veh CD79A (11719716_a_at) / RFU HIST1H1D (11736915_at) / Fold change /veh HIST1H1D (11736915_at) / RFU CASKIN2 (11723855_a_at) / Fold change /veh CASKIN2 (11723855_a_at) / RFU LOC730098 (11760151_x_at) / Fold change /veh LOC730098 (11760151_x_at) / RFU OR4N2 (11742367_at) / Fold change /veh OR4N2 (11742367_at) / RFU PRRT2 (11749266_a_at) / Fold change /veh PRRT2 (11749266_a_at) / RFU SNX32 (11753110_a_at) / Fold change /veh SNX32 (11753110_a_at) / RFU CDHR5 (11726645_a_at) / Fold change /veh CDHR5 (11726645_a_at) / RFU RCAN1 (11760418_a_at) / Fold change /veh RCAN1 (11760418_a_at) / RFU FAM167A (11723789_a_at) / Fold change /veh FAM167A (11723789_a_at) / RFU FAM26E (11764081_at) / Fold change /veh FAM26E (11764081_at) / RFU ISYNA1 (11749810_s_at) / Fold change /veh ISYNA1 (11749810_s_at) / RFU ACY1 (11761880_at) / Fold change /veh ACY1 (11761880_at) / RFU 11764098_at / Fold change /veh 11764098_at / RFU SAMD14 (11745864_x_at) / Fold change /veh SAMD14 (11745864_x_at) / RFU NPB (11741838_a_at) / Fold change /veh NPB (11741838_a_at) / RFU TMPRSS6 (11731388_a_at) / Fold change /veh TMPRSS6 (11731388_a_at) / RFU KRTAP10-2 (11738614_at) / Fold change /veh KRTAP10-2 (11738614_at) / RFU ARHGAP8 /// PRR5-ARHGAP8 (11727945_x_at) / Fold change /veh ARHGAP8 /// PRR5-ARHGAP8 (11727945_x_at) / RFU KRTAP5-7 /// NADSYN1 (11734609_at) / Fold change /veh KRTAP5-7 /// NADSYN1 (11734609_at) / RFU RASL12 (11751679_a_at) / Fold change /veh RASL12 (11751679_a_at) / RFU CDKN2B (11736163_a_at) / Fold change /veh CDKN2B (11736163_a_at) / RFU PRF1 (11729649_at) / Fold change /veh PRF1 (11729649_at) / RFU, ZNF638 /// ZNF638-IT1 / Fold change vs veh, ZNF638 /// ZNF638-IT1 / RFU, PANK3 / Fold change vs veh, PANK3 / RFU, SH3YL1 / Fold change vs veh, SH3YL1 / RFU, ZEB2 / Fold change vs veh, ZEB2 / RFU, NRIP1 / Fold change vs veh, NRIP1 / RFU, PTTG1IP / Fold change vs veh, PTTG1IP / RFU, CAPN2 / Fold change vs veh, CAPN2 / RFU, MED14 / Fold change vs veh, MED14 / RFU, SNORA58 / Fold change vs veh, SNORA58 / RFU, C1orf63 / Fold change vs veh, C1orf63 / RFU, LRRFIP1 / Fold change vs veh, LRRFIP1 / RFU, NDUFAF7 / Fold change vs veh, NDUFAF7 / RFU, SLC12A2 / Fold change vs veh, SLC12A2 / RFU, IBTK / Fold change vs veh, IBTK / RFU, ESF1 / Fold change vs veh, ESF1 / Fold change vs veh, TMEM50B / RFU, TAOK1 / Fold change vs veh, TAOK1 / RFU, ACBD3 / Fold change vs veh, ACBD3 / RFU, TMA16 / Fold change vs veh, TMA16 / RFU, RWDD3 / Fold change vs veh, RWDD3 / RFU, BCAT1 / Fold change vs veh, BCAT1 / RFU, EDEM3 / Fold change vs veh, EDEM3 / RFU, TMEM33 / Fold change vs veh, TMEM33 / RFU, WDR75 / Fold change vs veh, WDR75 / RFU, AHCTF1 / Fold change vs veh, AHCTF1 / RFU, TFRC / Fold change vs veh, TFRC / RFU, ZDHHC17 / Fold change vs veh, ZDHHC17 / RFU, NOM1 / Fold change vs veh, NOM1 / RFU, ARL8B / Fold change vs veh, ARL8B / RFU, ZBTB11 / Fold change vs veh, ZBTB11 / RFU, TAMM41 / Fold change vs veh, TAMM41 / RFU, KIAA1704 /// LOC100996395 / Fold change vs veh, KIAA1704 /// LOC100996395 / RFU, ING1 / Fold change vs veh, ING1 / RFU, TRMT61B / Fold change vs veh, TRMT61B / RFU, FUBP3 / Fold change vs veh, FUBP3 / RFU, TP53 / Fold change vs veh, TP53 / RFU, TNKS2 / Fold change vs veh, TNKS2 / RFU, ZFP14 / Fold change vs veh, ZFP14 / RFU, ACTR2 / Fold change vs veh, ACTR2 / RFU, PPP3R1 / Fold change vs veh, PPP3R1 / RFU, PIK3R1 / Fold change vs veh, PIK3R1 / RFU, HNRNPA1 / Fold change vs veh, HNRNPA1 / RFU, RNF170 / Fold change vs veh, RNF170 / RFU, ZNF28 / Fold change vs veh, ZNF28 / RFU, RNGTT / Fold change vs veh, RNGTT / RFU, OGT / Fold change vs veh, OGT / RFU, BRD1 / Fold change vs veh, BRD1 / RFU, MARS / Fold change vs veh, MARS / RFU, ZNF655 / Fold change vs veh, ZNF655 / RFU, FAHD1 / Fold change vs veh, FAHD1 / RFU, BDP1 / Fold change vs veh, BDP1 / RFU, LRRCC1 / Fold change vs veh, LRRCC1 / RFU, ARID1A / Fold change vs veh, ARID1A / RFU, ZNF146 / Fold change vs veh, ZNF146 / RFU, ZNF330 / Fold change vs veh, ZNF330 / RFU, GPN3 / Fold change vs veh, GPN3 / RFU, C9orf123 / Fold change vs veh, C9orf123 / RFU, N4BP2L2 / Fold change vs veh, N4BP2L2 / RFU, ARFIP1 / Fold change vs veh, ARFIP1 / RFU, FAM179B / Fold change vs veh, FAM179B / RFU, BCL10 / Fold change vs veh, BCL10 / RFU, UHRF1BP1L / Fold change vs veh, UHRF1BP1L / RFU, BET1 / Fold change vs veh, BET1 / RFU, CNOT2 / Fold change vs veh, CNOT2 / RFU, ZNF268 / Fold change vs veh, ZNF268 / Fold change vs veh, ZNF507 / RFU, DGCR2 / Fold change vs veh, DGCR2 / RFU, WDSUB1 / Fold change vs veh, WDSUB1 / Fold change vs veh, HSP90B1 /// MIR3652 / RFU, ADSS / Fold change vs veh, ADSS / RFU, GK / Fold change vs veh, GK / RFU, ZNF148 / Fold change vs veh, ZNF148 / RFU, TAF9 / Fold change vs veh, TAF9 / RFU, SLC1A5 / Fold change vs veh, SLC1A5 / RFU, SLMO2 / Fold change vs veh, SLMO2 / RFU, ABCC4 / Fold change vs veh, ABCC4 / RFU, LOC101060439 /// RAP1B / Fold change vs veh, LOC101060439 /// RAP1B / RFU, RFX7 / Fold change vs veh, RFX7 / RFU, GTPBP10 / Fold change vs veh, GTPBP10 / RFU, CNEP1R1 / Fold change vs veh, CNEP1R1 / RFU, BIVM-ERCC5 /// ERCC5 / Fold change vs veh, BIVM-ERCC5 /// ERCC5 / RFU, ILF3 / Fold change vs veh, ILF3 / RFU 11762660_at / Fold change /veh 11762660_at / RFU VCAN (11757783_s_at) / Fold change /veh VCAN (11757783_s_at) / RFU DDX43 (11728927_at) / Fold change /veh DDX43 (11728927_at) / RFU KRT8 (11758188_x_at) / Fold change /veh KRT8 (11758188_x_at) / RFU NKD1 (11759106_at) / Fold change /veh NKD1 (11759106_at) / RFU SRD5A1 (11742802_a_at) / Fold change /veh SRD5A1 (11742802_a_at) / RFU TPSAB1 /// TPSB2 (11721975_s_at) / Fold change /veh TPSAB1 /// TPSB2 (11721975_s_at) / RFU GSTM3 (11746129_a_at) / Fold change /veh GSTM3 (11746129_a_at) / RFU IL23R (11737362_x_at) / Fold change /veh IL23R (11737362_x_at) / RFU TMEM51 (11727254_a_at) / Fold change /veh TMEM51 (11727254_a_at) / RFU PIWIL2 (11732686_x_at) / Fold change /veh PIWIL2 (11732686_x_at) / RFU ORM1 (11744905_x_at) / Fold change /veh ORM1 (11744905_x_at) / RFU CCDC152 (11743942_at) / Fold change /veh CCDC152 (11743942_at) / RFU ECM1 (11717891_a_at) / Fold change /veh ECM1 (11717891_a_at) / RFU IL23R (11748794_a_at) / Fold change /veh IL23R (11748794_a_at) / RFU TNFAIP8L3 (11732012_x_at) / Fold change /veh TNFAIP8L3 (11732012_x_at) / RFU MBOAT4 (11741988_at) / Fold change /veh MBOAT4 (11741988_at) / RFU 11764193_at / Fold change /veh 11764193_at / RFU TMEM53 (11763286_at) / Fold change /veh TMEM53 (11763286_at) / RFU MAGEB2 (11727129_at) / Fold change /veh MAGEB2 (11727129_at) / RFU TMEM200A (11744735_a_at) / Fold change /veh TMEM200A (11744735_a_at) / RFU CCDC152 (11751479_a_at) / Fold change /veh CCDC152 (11751479_a_at) / RFU FAM211A (11726209_a_at) / Fold change /veh FAM211A (11726209_a_at) / RFU RGS16 (11746705_a_at) / Fold change /veh RGS16 (11746705_a_at) / RFU VCAN (11755009_s_at) / Fold change /veh VCAN (11755009_s_at) / RFU RHOB (11743442_s_at) / Fold change /veh RHOB (11743442_s_at) / RFU RGS16 (11720943_a_at) / Fold change /veh RGS16 (11720943_a_at) / RFU RGS16 (11720944_at) / Fold change /veh RGS16 (11720944_at) / RFU, VPS4B / Fold change vs veh, VPS4B / RFU, CREB1 / Fold change vs veh, CREB1 / RFU, DNAJC13 / Fold change vs veh, DNAJC13 / RFU, GNAQ / Fold change vs veh, GNAQ / RFU, CDK5R1 / Fold change vs veh, CDK5R1 / RFU, ZRANB3 / Fold change vs veh, ZRANB3 / RFU, CUL4A / Fold change vs veh, CUL4A / RFU, CCNY / Fold change vs veh, CCNY / RFU, UFL1 / Fold change vs veh, UFL1 / RFU, COG3 / Fold change vs veh, COG3 / RFU, DIAPH2 / Fold change vs veh, DIAPH2 / RFU, SKA2 / Fold change vs veh, SKA2 / RFU, AFF3 / Fold change vs veh, AFF3 / RFU, LMF1 / Fold change vs veh, LMF1 / RFU, IPO11 / Fold change vs veh, IPO11 / RFU, DFFB / Fold change vs veh, DFFB / RFU, FOXP1 / Fold change vs veh, FOXP1 / RFU, CARD8 / Fold change vs veh, CARD8 / RFU, STRN3 / Fold change vs veh, STRN3 / RFU, ADK / Fold change vs veh, ADK / RFU, RASSF2 / Fold change vs veh, RASSF2 / RFU, WIPF1 / Fold change vs veh, WIPF1 / RFU, LARP1B / Fold change vs veh, LARP1B / RFU, RASA1 / Fold change vs veh, RASA1 / RFU, RB1 / Fold change vs veh, RB1 / RFU, PPFIA1 / Fold change vs veh, PPFIA1 / RFU, MAT2A / Fold change vs veh, MAT2A / RFU, CCT5 / Fold change vs veh, CCT5 / RFU, WDR92 / Fold change vs veh, WDR92 / RFU, CUX1 / Fold change vs veh, CUX1 / RFU, TTC7A / Fold change vs veh, TTC7A / RFU, TMEM135 / Fold change vs veh, TMEM135 / RFU, DEPTOR / Fold change vs veh, DEPTOR / RFU, CPM / Fold change vs veh, CPM / RFU, DNAJB6 / Fold change vs veh, DNAJB6 / RFU, CACNA2D3 / Fold change vs veh, CACNA2D3 / RFU, DTX4 / Fold change vs veh, DTX4 / RFU, TFCP2 / Fold change vs veh, TFCP2 / RFU, GMCL1 /// GMCL1P1 / Fold change vs veh, GMCL1 /// GMCL1P1 / RFU, AEBP2 / Fold change vs veh, AEBP2 / RFU, SNHG1 /// SNORD22 /// SNORD25 /// SNORD26 /// SNORD27 /// SNORD28 /// SNORD29 /// SNORD31 / Fold change vs veh, SNHG1 /// SNORD22 /// SNORD25 /// SNORD26 /// SNORD27 /// SNORD28 /// SNORD29 /// SNORD31 / Fold change (Aza/veh), C12orf56 (ProbeSet 11735607_a_at) / Fold change (ACY-1035/veh), C12orf56 (ProbeSet 11735607_a_at) / Fold change (Aza/veh), FGFR1OP (ProbeSet 11751329_s_at) / Fold change (ACY-1035/veh), FGFR1OP (ProbeSet 11751329_s_at) / Fold change (Aza/veh), VPS36 (ProbeSet 11739960_a_at) / Fold change (ACY-1035/veh), VPS36 (ProbeSet 11739960_a_at) / RFU SYPL1 (11715823_x_at) / Fold change /veh SYPL1 (11715823_x_at) / RFU IGFBP7 (11715501_s_at) / Fold change /veh IGFBP7 (11715501_s_at) / RFU REEP3 (11722064_at) / Fold change /veh REEP3 (11722064_at) / RFU IGLL1 (11728026_x_at) / Fold change /veh IGLL1 (11728026_x_at): dose or concentration left out as unconfirmed
Settings: ProbeSet 11749477_a_at; LIST B

Nc1ccc(-c2cccs2)cc1NC(=O)c1ccc2c(c1)cc(C1CC1)n2CCN1CCOCC1 [ACY-1035]
Fold change vs veh, EDEM3: 0.94
